From patent US8415469B2, “Compounds and methods for kinase modulation, and indications therefor” (Plexxikon Inc., priority 2005, dated 2013)

Key:
Type in all cases: biochemical
[1] = target: T1, FGFR1 (Homo sapiens, UniProt P11362, C488A/C584S); assay: AlphaScreen kinase assay, FGFR1; conditions: read-out: IC50, activity toward kinase FGFR
T1 construct: P1351.pET N6 BI-PTP FGFR A458-E765-X C488A, C584S; made in house; host or cells: E. coli (PTP1B co-expressed)

[2] = target: T2, B-Raf V600E (Homo sapiens, UniProt P15056, V600E); assay: AlphaScreen kinase assay, B-Raf V600E; conditions: read-out: IC50, activity toward kinase B-Raf V600E
T2 construct: P4254. pFastBacBD-CDC37 BRAF D437-K722-X, V600E; His6 with pFastBac HT leader (TEV site) (N); made in house; host or cells: Sf9 (baculovirus; chaperone CDC37 co-expressed)
T2 sequence (P15056 with tags, fused parts or gaps V600E): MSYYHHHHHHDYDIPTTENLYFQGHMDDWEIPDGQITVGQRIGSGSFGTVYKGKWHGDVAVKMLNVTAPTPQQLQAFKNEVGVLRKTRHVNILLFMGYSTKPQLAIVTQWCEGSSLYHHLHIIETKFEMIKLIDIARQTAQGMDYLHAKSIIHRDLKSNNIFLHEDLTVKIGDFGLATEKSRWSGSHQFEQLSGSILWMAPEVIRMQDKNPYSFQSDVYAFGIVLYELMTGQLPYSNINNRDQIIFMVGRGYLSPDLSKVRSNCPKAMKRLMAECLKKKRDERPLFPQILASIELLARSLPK

[3] = target: T3, Flt1 (Homo sapiens, UniProt P17948); assay: AlphaScreen kinase assay, Flt1; conditions: read-out: IC50, activity toward kinase Flt1
T3 construct: P1826.pETN6 BI-PTP FLT1 M799-D1165-X WT; His6 (N); made in house; host or cells: E. coli (PTP1B co-expressed)
T3 sequence (P17948 with tags, fused parts or gaps): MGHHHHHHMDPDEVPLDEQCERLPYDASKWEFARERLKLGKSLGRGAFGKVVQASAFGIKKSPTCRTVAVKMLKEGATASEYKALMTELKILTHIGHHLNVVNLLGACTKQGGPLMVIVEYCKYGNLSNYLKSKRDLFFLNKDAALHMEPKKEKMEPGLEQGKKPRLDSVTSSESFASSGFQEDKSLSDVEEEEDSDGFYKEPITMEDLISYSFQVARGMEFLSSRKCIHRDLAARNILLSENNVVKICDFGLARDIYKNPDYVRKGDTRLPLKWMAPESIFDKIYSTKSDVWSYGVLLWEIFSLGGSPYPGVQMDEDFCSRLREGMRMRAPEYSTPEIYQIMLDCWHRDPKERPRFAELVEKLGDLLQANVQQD

[4] = target: T4, Kit (Homo sapiens, UniProt P10721); assay: AlphaScreen kinase assay, Kit; conditions: read-out: IC50, activity toward kinase Kit
T4 construct: P1332.N6 BI PTP KIT M552-K948-X COD; His6 (N); made in house; host or cells: E. coli (PTP1B co-expressed)
T4 sequence (P10721 with tags, fused parts or gaps): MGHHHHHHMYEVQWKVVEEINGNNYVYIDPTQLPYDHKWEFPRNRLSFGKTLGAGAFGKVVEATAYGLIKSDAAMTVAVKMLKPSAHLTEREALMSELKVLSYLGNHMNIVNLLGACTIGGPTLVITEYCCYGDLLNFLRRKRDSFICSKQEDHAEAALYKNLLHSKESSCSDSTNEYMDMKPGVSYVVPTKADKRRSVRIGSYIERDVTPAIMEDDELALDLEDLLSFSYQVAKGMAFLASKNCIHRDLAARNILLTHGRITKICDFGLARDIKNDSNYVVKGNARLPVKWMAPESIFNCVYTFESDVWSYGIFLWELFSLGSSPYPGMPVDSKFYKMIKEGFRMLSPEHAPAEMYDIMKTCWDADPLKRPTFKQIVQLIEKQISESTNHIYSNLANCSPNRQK

[5] = target: T5, Fms (Homo sapiens, UniProt P07333); assay: AlphaScreen kinase assay, Fms; conditions: read-out: IC50, activity toward kinase Fms
T5 construct: purchased Upstate Biotechnology
T5 sequence (P07333 20-972): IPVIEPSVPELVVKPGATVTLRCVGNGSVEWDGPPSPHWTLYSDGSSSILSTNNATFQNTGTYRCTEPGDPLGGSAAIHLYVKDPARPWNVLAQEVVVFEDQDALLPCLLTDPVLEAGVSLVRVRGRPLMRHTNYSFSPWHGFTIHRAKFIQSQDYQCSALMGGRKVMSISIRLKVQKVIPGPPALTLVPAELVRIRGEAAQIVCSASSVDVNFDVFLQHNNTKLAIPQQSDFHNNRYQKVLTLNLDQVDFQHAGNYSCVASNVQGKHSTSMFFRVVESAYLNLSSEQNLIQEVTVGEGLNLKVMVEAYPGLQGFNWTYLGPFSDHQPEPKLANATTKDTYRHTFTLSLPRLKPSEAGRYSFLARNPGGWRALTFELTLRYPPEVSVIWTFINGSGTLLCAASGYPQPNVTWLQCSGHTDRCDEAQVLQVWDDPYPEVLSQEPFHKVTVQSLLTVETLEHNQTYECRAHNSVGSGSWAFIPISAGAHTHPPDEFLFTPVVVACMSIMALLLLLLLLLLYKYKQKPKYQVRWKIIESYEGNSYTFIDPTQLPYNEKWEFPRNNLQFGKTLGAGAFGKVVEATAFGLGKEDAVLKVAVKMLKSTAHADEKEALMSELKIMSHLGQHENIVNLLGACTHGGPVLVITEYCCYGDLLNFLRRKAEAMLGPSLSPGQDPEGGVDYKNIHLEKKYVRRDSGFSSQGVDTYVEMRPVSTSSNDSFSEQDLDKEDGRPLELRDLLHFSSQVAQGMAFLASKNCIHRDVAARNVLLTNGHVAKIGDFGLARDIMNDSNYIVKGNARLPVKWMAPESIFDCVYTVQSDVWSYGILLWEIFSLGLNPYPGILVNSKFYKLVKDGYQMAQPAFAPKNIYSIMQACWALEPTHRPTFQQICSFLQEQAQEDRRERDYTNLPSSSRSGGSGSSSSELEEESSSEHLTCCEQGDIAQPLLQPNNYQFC

[6] = target: T6, B-Raf (Homo sapiens, UniProt P15056); assay: AlphaScreen kinase assay, B-Raf; conditions: read-out: IC50, activity toward kinase B-Raf
T6 construct: purchased Upstate Biotechnology
T6 sequence (P15056 whole entry): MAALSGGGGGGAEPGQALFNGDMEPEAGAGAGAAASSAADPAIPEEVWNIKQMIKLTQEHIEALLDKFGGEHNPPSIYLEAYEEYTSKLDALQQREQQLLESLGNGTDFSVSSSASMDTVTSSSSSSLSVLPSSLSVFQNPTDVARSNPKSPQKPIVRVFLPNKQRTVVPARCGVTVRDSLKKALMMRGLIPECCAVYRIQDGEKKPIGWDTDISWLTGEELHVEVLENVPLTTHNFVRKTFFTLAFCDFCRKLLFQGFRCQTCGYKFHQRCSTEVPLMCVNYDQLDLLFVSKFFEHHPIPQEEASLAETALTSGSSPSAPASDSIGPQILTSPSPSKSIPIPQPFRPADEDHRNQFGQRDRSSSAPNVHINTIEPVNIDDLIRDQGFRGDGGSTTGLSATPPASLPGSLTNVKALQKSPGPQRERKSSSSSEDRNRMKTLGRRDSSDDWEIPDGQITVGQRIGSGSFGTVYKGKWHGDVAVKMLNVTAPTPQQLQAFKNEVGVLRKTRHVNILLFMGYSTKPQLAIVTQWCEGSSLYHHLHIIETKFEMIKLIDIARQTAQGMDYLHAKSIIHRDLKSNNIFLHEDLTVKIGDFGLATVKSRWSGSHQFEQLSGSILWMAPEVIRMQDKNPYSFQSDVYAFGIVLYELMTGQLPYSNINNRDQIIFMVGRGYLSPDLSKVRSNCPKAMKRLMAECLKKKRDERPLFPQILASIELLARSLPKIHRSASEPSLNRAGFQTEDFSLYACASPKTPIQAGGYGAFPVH

Measured: IC50

T1 sequence (P11362 458-765 C488A/C584S): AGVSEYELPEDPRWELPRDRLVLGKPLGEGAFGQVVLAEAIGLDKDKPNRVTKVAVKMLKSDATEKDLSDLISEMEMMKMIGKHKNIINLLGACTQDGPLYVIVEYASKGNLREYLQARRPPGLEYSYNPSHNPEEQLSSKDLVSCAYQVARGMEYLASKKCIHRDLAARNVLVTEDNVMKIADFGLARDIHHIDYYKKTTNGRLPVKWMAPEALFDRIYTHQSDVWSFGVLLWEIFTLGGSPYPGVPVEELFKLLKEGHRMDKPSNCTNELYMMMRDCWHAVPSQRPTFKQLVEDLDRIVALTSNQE

CS(=O)(=O)Nc1cccc(-c2cnc3[nH]cc(C(=O)c4ccc5c(c4)OC(F)(F)O5)c3c2)c1 [Compound P-1564, N-{3-[3-(2,2-Difluoro-benzo[1,3]dioxole-5-carbonyl)-1H-pyrrolo[2,3-b]pyridin-5-yl]-phenyl}-methanesulfonamide]
not listed: [6]
≤ 10 µM: all other assays above

COc1cnc2[nH]cc(Cc3c(F)ccc(NS(=O)(=O)c4cccc(C(F)(F)F)c4)c3F)c2c1 [Compound P-1590, N-[2,4-Difluoro-3-(5-methoxy-1H-pyrrolo[2,3-b]pyridin-3-ylmethyl)-phenyl]-3-trifluoromethyl-benzenesulfonamide]
≤ 10 µM: [2] | [3] | [6] | [4]

OC(c1c(Cl)ccc(OCC(F)(F)F)c1F)c1c[nH]c2ncc(Br)cc12 (stereo not shown) [Compound P-1393, (5-Bromo-1H-pyrrolo[2,3-b]pyridin-3-yl)-[6-chloro-2-fluoro-3-(2,2,2-trifluoro-ethoxy)-phenyl]-methanol]
≤ 10 µM: [1] | [3] | [4] | [5]

CS(=O)(=O)Nc1cccc(-c2cnc3[nH]cc(C(=O)c4cccc(OC(F)(F)F)c4)c3c2)c1 [Compound P-1428, N-{3-[3-(3-Trifluoromethoxy-benzoyl)-1H-pyrrolo[2,3-b]pyridin-5-yl]-phenyl}-methanesulfonamide]
≤ 10 µM: [1] | [3] | [4] | [5]

CC(=O)Nc1cccc(-c2cnc3[nH]cc(C(=O)c4cc(Cl)cc(Cl)c4)c3c2)c1 [Compound P-1423, N-{3-[3-(3,5-Dichloro-benzoyl)-1H-pyrrolo[2,3-b]pyridin-5-yl]-phenyl}-acetamide]
not listed: [6]
≤ 10 µM: all other assays above

COc1cc(OC)cc(C(O)c2c[nH]c3ncc(Br)cc23)c1 (stereo not shown) [Compound P-1460]
≤ 10 µM: [1] | [3] | [4] | [5]

CC(C)(C)OC(=O)N(Cc1ccc(Cl)cc1)c1ccc(C(=O)c2c[nH]c3ncccc23)cn1 [Compound P-1194]
not listed: [6]
≤ 10 µM: all other assays above

COc1cc(OC)cc(C(OC)c2c[nH]c3ncc(Br)cc23)c1 (stereo not shown) [Compound P-1461]
≤ 10 µM: [1] | [3] | [4] | [5]

COc1cc(OC)cc(C(=O)c2c[nH]c3ncc(Br)cc23)c1 [Compound P-1463, (5-Bromo-1H-pyrrolo[2,3-b]pyridin-3-yl)-(3,5-dimethoxy-phenyl)-methanone]
≤ 10 µM: [1] | [3] | [4] | [5]

O=S(=O)(Nc1ccc(F)c(Cc2c[nH]c3ncc(Cl)cc23)c1F)c1cccc(C(F)(F)F)c1 [Compound P-1600, N-[2,4-Difluoro-3-(5-chloro-1H-pyrrolo[2,3-b]pyridin-3-ylmethyl)-phenyl]-3-trifluoromethyl-benzenesulfonamide]
≤ 10 µM: [2] | [3] | [6]

COc1cc(Cc2c[nH]c3ncc(Br)cc23)cc(OC)c1 [Compound P-1464, 5-Bromo-3-(3,5-dimethoxy-benzyl)-1H-pyrrolo[2,3-b]pyridine]
≤ 10 µM: [1] | [3] | [4] | [5]
